The values that follow come from ChEMBL document CHEMBL2034835, “A solvent free, four-component synthesis and 1,3-dipolar cycloaddition of 4(H)-pyrans with nitrile oxides: synthesis and discovery of antimycobacterial activity of enantiomerically pure 1,2,4-oxadiazoles” (2012).

What all share (type): functional
In assay [1] the test system is Mycobacterium tuberculosis. As to the kind of experiment: Antitubercular activity against isoniazid, rifampicin and ethambutol-resistant Mycobacterium tuberculosis clinical isolate after 28 days by agar dilution method. The conditions noted are these: 672 h.
Assay [2] concerns Mycobacterium tuberculosis. In words: Ratio of rifampicin MIC to compound MIC for multidrug-resistant Mycobacterium tuberculosis clinical isolate.
The subject of assay [3] is Mycobacterium tuberculosis. As to the kind of experiment: Ratio of isoniazid MIC to compound MIC for multidrug-resistant Mycobacterium tuberculosis clinical isolate.
Assay [4] relates to Mycobacterium tuberculosis. As to the kind of experiment: Ratio of ciprofloxacin MIC to compound MIC for multidrug-resistant Mycobacterium tuberculosis clinical isolate.
The test system of assay [5] is Mycobacterium tuberculosis. In words: Ratio of ethambutol MIC to compound MIC for multidrug-resistant Mycobacterium tuberculosis clinical isolate.

SMILES strings stand for the structures. Converted amounts (≈) assume the structure as drawn.

For `Cc1ccc(/C=C2\CN([C@H](C)c3ccccc3)CC3=C2OC(N)=C(c2nc(-c4ccc(Cl)cc4)no2)C3c2ccc(C)cc2)cc1` (stereo in doubt; 9d), the MIC – broadly, the lowest concentration found to suppress growth – in assay [1] came out at 1.24 µM (≈ 0.778 µg/mL).
On the same count and under the same terms, with `C[C@H](c1ccccc1)N1CC2=C(OC(N)=C(c3nc(-c4ccccc4)no3)C2c2ccccc2Cl)/C(=C/c2ccccc2Cl)C1` (stereo in doubt; 9e) the figure was 1.23 µM (≈ 0.779 µg/mL).
On the same count and under the same terms, with `C[C@H](c1ccccc1)N1CC2=C(OC(N)=C(c3nc(-c4ccc(Cl)cc4)no3)C2c2ccccc2Cl)/C(=C/c2ccccc2Cl)C1` (stereo in doubt; 9f) the figure was 0.6 µM (≈ 0.401 µg/mL); with `C[C@H](c1ccccc1)N1CC2=C(OC(N)=C(c3nc(-c4ccccc4)no3)C2c2ccc(Cl)cc2Cl)/C(=C/c2ccc(Cl)cc2Cl)C1` (stereo in doubt; 9g), 0.57 µM (≈ 0.4 µg/mL).
As to `C[C@H](c1ccccc1)N1CC2=C(OC(N)=C(c3nc(-c4ccc(Cl)cc4)no3)C2c2ccc(Cl)cc2Cl)/C(=C/c2ccc(Cl)cc2Cl)C1` (stereo in doubt; 9h), the Ratio in assay [2] was 27.1; in assay [3], 81.3; in assay [4] it was 269.5; in assay [5], 437. Further, the MIC in assay [1] came out at 0.14 µM (≈ 0.103 µg/mL).
In assay [1], `C[C@H](c1ccccc1)N1CC2=C(OC(N)=C(c3nc(-c4ccccc4)no3)C2c2ccccc2)/C(=C/c2ccccc2)C1` (stereo in doubt; 10a) registered an MIC of 5.54 µM (≈ 3.13 µg/mL).
Still for that read-out and setting: with `C[C@H](c1ccccc1)N1CC2=C(OC(N)=C(c3nc(-c4ccc(Cl)cc4)no3)C2c2ccccc2)/C(=C/c2ccccc2)C1` (stereo in doubt; 10b) the figure was 2.6 µM (≈ 1.56 µg/mL).
`CC[C@@H](CO)NCCN[C@@H](CC)CO` [ETHAMBUTOL] gave a minimal inhibitory concentration (MIC) in assay [1] of 61.2 µM (≈ 12.5 µg/mL).
Consider `NNC(=O)c1ccncc1` [ISONIAZID], for which the MIC in assay [1] is 11.4 µM (≈ 1.56 µg/mL).
Still for that read-out and setting: with `CO[C@H]1/C=C/O[C@@]2(C)Oc3c(C)c(O)c4c(O)c(c(/C=N/N5CCN(C)CC5)c(O)c4c3C2=O)NC(=O)/C(C)=C\C=C\[C@H](C)[C@H](O)[C@@H](C)[C@@H](O)[C@@H](C)[C@H](OC(C)=O)[C@@H]1C` [RIFAMPIN] the figure was 3.8 µM (≈ 3.13 µg/mL).
